Measured values taken from article PMC9825622, “Leveraging molecular structure and bioactivity with chemical language models for de novo drug design” (Nature Communications, 2023).

Key:
PI3Kγ = target: T1, PI3Kγ (Homo sapiens, UniProt P48736); assay: KINOMEscan biochemical kinase binding assay (Kd determination); settings: for experimentally determined binding constant Kd: Fig. 4, commercially available compounds, absence of a value (−) = no observed binding; for Kd: average of N = 2 independent experiments
T1 construct: purchased Eurofins Discovery (KINOMEscan, fee-for-service)
T1 sequence (P48736 whole entry): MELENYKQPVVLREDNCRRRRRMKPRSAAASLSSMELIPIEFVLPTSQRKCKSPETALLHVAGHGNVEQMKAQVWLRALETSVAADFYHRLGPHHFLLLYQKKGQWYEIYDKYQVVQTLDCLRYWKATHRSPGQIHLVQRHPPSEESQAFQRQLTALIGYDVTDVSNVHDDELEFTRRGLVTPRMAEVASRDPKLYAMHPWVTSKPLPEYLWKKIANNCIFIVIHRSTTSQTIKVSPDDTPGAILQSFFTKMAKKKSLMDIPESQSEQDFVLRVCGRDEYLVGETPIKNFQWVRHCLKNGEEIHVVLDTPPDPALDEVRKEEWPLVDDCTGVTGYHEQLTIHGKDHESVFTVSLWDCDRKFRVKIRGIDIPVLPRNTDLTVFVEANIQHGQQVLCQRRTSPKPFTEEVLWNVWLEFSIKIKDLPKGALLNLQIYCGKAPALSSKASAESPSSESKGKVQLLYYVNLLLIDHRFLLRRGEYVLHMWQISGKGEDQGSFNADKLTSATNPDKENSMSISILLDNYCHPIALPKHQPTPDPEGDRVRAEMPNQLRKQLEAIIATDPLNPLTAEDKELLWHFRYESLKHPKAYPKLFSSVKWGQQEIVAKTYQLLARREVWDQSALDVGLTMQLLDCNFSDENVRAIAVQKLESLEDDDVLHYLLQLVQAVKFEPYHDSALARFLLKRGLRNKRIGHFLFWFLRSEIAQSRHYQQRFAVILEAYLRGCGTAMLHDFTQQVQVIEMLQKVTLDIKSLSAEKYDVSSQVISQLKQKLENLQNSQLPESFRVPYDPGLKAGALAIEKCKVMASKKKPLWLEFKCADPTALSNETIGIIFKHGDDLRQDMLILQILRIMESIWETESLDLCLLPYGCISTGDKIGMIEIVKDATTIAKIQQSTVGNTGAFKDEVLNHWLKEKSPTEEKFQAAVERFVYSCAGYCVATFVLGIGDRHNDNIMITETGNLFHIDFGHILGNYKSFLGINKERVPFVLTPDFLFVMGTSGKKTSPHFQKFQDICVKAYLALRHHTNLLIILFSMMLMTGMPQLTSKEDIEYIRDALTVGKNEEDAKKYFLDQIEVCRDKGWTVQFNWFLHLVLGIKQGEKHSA
Protocol: PI3Kγ binding assays were performed by Eurofins Discovery (https://www.eurofinsdiscoveryservices.com) on a fee-for-service basis. KINOMEscan™ was used to determine the dissociation constant Kd. […] Competition of the test compound with the immobilized ligand was measured via quantitative PCR (qPCR) of the DNA tag of DNA-tagged kinase. An 11-point three-fold serial dilution of each test compound was prepared in 100% DMSO at 100× final test concentration and subsequently diluted to 1× in the assay (final DMSO concentration = 1%). Dissociation constants were estimated with a standard dose-response curve using the Hill equation (Eq. 4)[71]:4 Response=Background+Signal−Background/1+KdHillslope/Dose^HillSlope, where the Hill slope was set to −1. Curves were fitted using a nonlinear least square fit with the Levenberg–Marquardt algorithm[72],[73].

[1] = system: HD-MB03 medulloblastoma cells; assay: CellTiter-Glo cell viability/proliferation assay; format: cell-based, human; settings: for IC50: Homo sapiens, HD-MB03, 72 h, 72 h exposure, medium supplemented with FBS, read-out: IC50 (CellTiter-Glo viability, best-fit)
Protocol: HD-MBO3 Group 3 medulloblastoma cells were cultured in RPMI medium supplemented with 10% fetal bovine serum (FBS, both from Sigma-Aldrich, St. Louis, USA), 1% Penicillin-Streptomycin, and 1% GlutaMAX (both from Gibco/Thermo Fisher Scientific, Waltham, USA). The cells were maintained at 37 °C in a humidified atmosphere containing 5% CO2. […] DMSO was used as solvent control in all assays.
Cell viability was determined using CellTiter-Glo® 2.0 Cell Viability Assay (G9242, Promega, Madison, USA). About 500 cells per 20 μl were seeded in a flat bottom 384-well plate (781098, Greiner bio-one, Kremsmünster, Austria). Increasing concentrations of compounds were deposited on cells using an HP Digital Drug Dispenser (Hewlett-Packard, Palo Alto, USA) with DMSO total volume normalization. After 72 h, the CellTiter-Glo reagent was added (volume/volume) following the manufacturer’s instructions. Luminescence representing the number of viable cells was quantified with a Cytation 3 imaging reader (BioTek, Winooski, USA). […] Prism 9 software (GraphPad Software, San Diego, CA, USA) was used to calculate best-fit values of inhibitor vs. normalized response and to predict IC50.

PI3Kα = settings: cited from earlier work
PI3Kδ = settings: cited from earlier work

| SMILES | experimentally determined binding constant Kd (PI3Kγ) | also measured |
| --- | --- | --- |
| COc1ccc(-c2cc(C(F)(F)F)n3ncc(C#N)c3n2)cc1OC [Compound 2] | no observed binding | PI3Kγ activity in vitro (biochemical assay), in words (PI3Kγ): inactive in vitro |
| COc1ccc(-c2cc(C(F)F)n3ncc(C#N)c3n2)cc1OC [Compound 4] | no observed binding | PI3Kγ activity in vitro (biochemical assay), in words (PI3Kγ): inactive in vitro |
| CC(C)n1nc(-c2cc(C3CC3)c(O)c(C3CC3)c2)c2c(N)ncnc21 [Compound 21] |  | Kd (PI3Kγ): 290 nM |
| COc1ccc(-c2nc(-c3ccc(F)cc3)no2)cc1OC [Compound 3] | no observed binding |  |
| COc1ccc(-c2nc(CN)no2)cc1OC [Compound 12] | no observed binding |  |
| COc1ccc(-c2nc(-c3ccc(F)cc3)c(-c3ccc(F)cc3)[nH]2)cc1O [Compound 9] | no observed binding |  |
| COc1ccc(-c2nnc(CCl)o2)cc1OC [Compound 11] | no observed binding |  |
| COc1ccc(C(=O)Nc2ccc3ccccc3c2)cc1OC [Compound 8] | no observed binding |  |
| COc1ccc(-c2cnc(N)cc2C)cc1OC [Compound 6] | no observed binding |  |
| COc1ccc(-c2cc(CCl)no2)cc1OC [Compound 7] | no observed binding |  |
| COc1ccc(Nc2nc(-c3ccc(Br)cc3)nc3ccccc23)cc1OC [Compound 10] | no observed binding |  |
| COc1ccc(-c2cnoc2-c2cc(OC)c(OC)c(OC)c2)cc1O [Compound 16] | no observed binding |  |
| CC(C)n1nc(-c2cc(Cl)c(O)c(Cl)c2)c2c(N)ncnc21 [Compound 22] |  | effect on viability at 100 nM ([1]; 100 nM concentration): neither 18 nor 22 caused a significant reduction in viability; IC50 [1]: 188 nM; Kd (PI3Kγ): 13 nM |
| COc1ccc(-c2nc(CCl)c(C)o2)cc1OC [Compound 14] | no observed binding |  |
| CC(C)n1nc(-c2cc(Cl)c(O)c(C3CC3)c2)c2c(N)ncnc21 [Compound 20] |  | Kd (PI3Kγ): 120 nM |
| COc1ccc(-c2nnc(C(C)C)s2)cc1OC [Compound 5] | no observed binding |  |
| COc1c(OCCCN2CCOCC2)ccc2c1N=C(NC(=O)c1cnc(N)nc1)N1CCN=C21 [copanlisib, Copanlisib] |  | inhibitory activity against PI3Kα (PI3Kα): sub-nanomolar; IC50 [1]: 19.4 nM; inhibitory activity against PI3Kδ (PI3Kδ): sub-nanomolar |
| COc1ccc(-c2noc(-c3ccc(O)cc3)n2)cc1OC [Compound 13] | no observed binding |  |
| COc1ccc(Nc2ncccc2[N+](=O)[O-])cc1OC [Compound 15] | no observed binding |  |
